Laboratory results as given in PubChem BioAssay (NCI).
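48-hour exposure; five concentrations; linearly interpolated endpoints. The concentration for 50% growth inhibition is given as GI50. TGI: total growth inhibition.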

Experiments:
Experiment in all cases: NCI tumour cell line growth inhibition, 48 h
OVCAR-5 ovarian = tested on: OVCAR-5 ovarian
MDA-MB-231 breast = tested on: MDA-MB-231 breast
K-562 leukemia = tested on: K-562 leukemia
SN12C renal = tested on: SN12C renal
SF-539 CNS = tested on: SF-539 CNS
SNB-75 CNS = tested on: SNB-75 CNS
NCI-H460 lung = tested on: NCI-H460 lung
MCF7 breast = tested on: MCF7 breast
HL-60(TB) leukemia = tested on: HL-60(TB) leukemia
UO-31 renal = tested on: UO-31 renal

Q: Which results are given for Cc1c(C(N)=O)sc2c1C(=O)N(Cc1ccccc1)C1=NN=C(c3ccc(Cl)cc3)CN12?
A: GI50 (OVCAR-5 ovarian): 8.47 µM; TGI (OVCAR-5 ovarian): 21.1 µM; GI50 (MDA-MB-231 breast): 3.54 µM; TGI (MDA-MB-231 breast): 16 µM; GI50 (K-562 leukemia): 2.97 µM; TGI (K-562 leukemia): > 100 µM; GI50 (SN12C renal): 3.42 µM; TGI (SN12C renal): 15.6 µM; GI50 (SF-539 CNS): 3.39 µM; TGI (SF-539 CNS): 11 µM; GI50 (SNB-75 CNS): 10.6 µM; TGI (SNB-75 CNS): 23.7 µM; GI50 (NCI-H460 lung): 2.13 µM; TGI (NCI-H460 lung): 7.69 µM; GI50 (MCF7 breast): 3.59 µM; TGI (MCF7 breast): 14.9 µM; GI50 (HL-60(TB) leukemia): 2.59 µM; TGI (HL-60(TB) leukemia): 46.1 µM; GI50 (UO-31 renal): 2.24 µM; TGI (UO-31 renal): 15.3 µM

Q: Which GI50 (OVCAR-5 ovarian) does the source give for CC(C)(C)OC(=O)N1CCN(CCn2cc(C(F)(F)F)c3c(Cl)ncnc32)CC1 here?
A: 17.1 µM

Q: And the TGI (OVCAR-5 ovarian)?
A: 38.7 µM

Q: What about the GI50 (MDA-MB-231 breast) of the same compound?
A: 11.1 µM

Q: And the TGI (MDA-MB-231 breast)?
A: 27.5 µM

Q: What about the GI50 (K-562 leukemia) of the same compound?
A: 3.22 µM

Q: And the TGI (K-562 leukemia)?
A: 14.1 µM

Q: What about the GI50 (SN12C renal) of the same compound?
A: 4.05 µM

Q: What about the TGI (SN12C renal) of the same compound?
A: 15.1 µM

Q: What about the GI50 (SF-539 CNS) of the same compound?
A: 12.8 µM

Q: What about the TGI (SF-539 CNS) of the same compound?
A: 26.1 µM

Q: What about the GI50 (SNB-75 CNS) of the same compound?
A: 16.2 µM

Q: What about the TGI (SNB-75 CNS) of the same compound?
A: 32.9 µM

Q: And the GI50 (NCI-H460 lung)?
A: 2.18 µM

Q: What about the TGI (NCI-H460 lung) of the same compound?
A: 4.29 µM

Q: And the GI50 (MCF7 breast)?
A: 12.3 µM

Q: And the TGI (MCF7 breast)?
A: 32.1 µM

Q: What about the GI50 (HL-60(TB) leukemia) of the same compound?
A: 2.43 µM

Q: What about the TGI (HL-60(TB) leukemia) of the same compound?
A: 6.46 µM

Q: What about the GI50 (UO-31 renal) of the same compound?
A: 11.6 µM

Q: And the TGI (UO-31 renal)?
A: 24.4 µM

Q: How did the GI50 (OVCAR-5 ovarian) turn out when COc1c(C)c2c(c(O)c1C/C=C(\C)CCC(=O)O)C(=O)OC2 was run?
A: 1.79 µM

Q: What about the TGI (OVCAR-5 ovarian) of the same compound?
A: > 100 µM

Q: What about the GI50 (MDA-MB-231 breast) of the same compound?
A: 0.956 µM

Q: And the TGI (MDA-MB-231 breast)?
A: > 100 µM

Q: What about the GI50 (K-562 leukemia) of the same compound?
A: 0.123 µM

Q: And the TGI (K-562 leukemia)?
A: > 100 µM

Q: And the GI50 (SN12C renal)?
A: 0.499 µM

Q: And the TGI (SN12C renal)?
A: > 100 µM

Q: What about the GI50 (SF-539 CNS) of the same compound?
A: 0.491 µM

Q: What about the TGI (SF-539 CNS) of the same compound?
A: > 100 µM

Q: And the GI50 (SNB-75 CNS)?
A: 0.938 µM

Q: What about the TGI (SNB-75 CNS) of the same compound?
A: > 100 µM

Q: And the GI50 (NCI-H460 lung)?
A: 0.116 µM

Q: What about the TGI (NCI-H460 lung) of the same compound?
A: > 100 µM

Q: What about the GI50 (MCF7 breast) of the same compound?
A: 0.18 µM

Q: And the TGI (MCF7 breast)?
A: > 100 µM

Q: What about the GI50 (HL-60(TB) leukemia) of the same compound?
A: 0.639 µM

Q: And the TGI (HL-60(TB) leukemia)?
A: > 100 µM

Q: What about the GI50 (UO-31 renal) of the same compound?
A: 0.472 µM

Q: And the TGI (UO-31 renal)?
A: > 100 µM

Q: Which GI50 (OVCAR-5 ovarian) does the source give for FC(F)(F)c1ccc(Nc2nc(-c3c(C(F)(F)F)nc4ccccn34)cs2)cc1 here?
A: 0.476 µM

Q: And the TGI (OVCAR-5 ovarian)?
A: 16.5 µM

Q: What about the GI50 (MDA-MB-231 breast) of the same compound?
A: 0.81 µM

Q: What about the TGI (MDA-MB-231 breast) of the same compound?
A: 6.93 µM

Q: What about the GI50 (K-562 leukemia) of the same compound?
A: 0.0396 µM

Q: And the TGI (K-562 leukemia)?
A: 8.18 µM

Q: What about the GI50 (SN12C renal) of the same compound?
A: 0.297 µM

Q: And the TGI (SN12C renal)?
A: 8.28 µM

Q: What about the GI50 (SF-539 CNS) of the same compound?
A: 0.0383 µM

Q: What about the TGI (SF-539 CNS) of the same compound?
A: 0.276 µM

Q: What about the GI50 (SNB-75 CNS) of the same compound?
A: 0.0291 µM

Q: What about the TGI (SNB-75 CNS) of the same compound?
A: 1.05 µM

Q: What about the GI50 (NCI-H460 lung) of the same compound?
A: 0.0353 µM

Q: What about the TGI (NCI-H460 lung) of the same compound?
A: 4.75 µM

Q: And the GI50 (MCF7 breast)?
A: 0.0341 µM

Q: And the TGI (MCF7 breast)?
A: 5.43 µM

Q: What about the GI50 (HL-60(TB) leukemia) of the same compound?
A: 0.0406 µM

Q: And the TGI (HL-60(TB) leukemia)?
A: 2.25 µM

Q: And the GI50 (UO-31 renal)?
A: 0.289 µM

Q: And the TGI (UO-31 renal)?
A: 6.89 µM

Q: What does the source list for COc1ccc(-c2nc(-c3nc4ccc(OC)cc4[nH]3)c3ccccn23)cc1?
A: GI50 (OVCAR-5 ovarian): 11.4 µM; TGI (OVCAR-5 ovarian): > 100 µM; GI50 (MDA-MB-231 breast): 5.65 µM; TGI (MDA-MB-231 breast): > 100 µM; GI50 (K-562 leukemia): 3.6 µM; TGI (K-562 leukemia): > 100 µM; GI50 (SN12C renal): 3.91 µM; TGI (SN12C renal): > 100 µM; GI50 (SF-539 CNS): 9.71 µM; TGI (SF-539 CNS): > 100 µM; GI50 (SNB-75 CNS): 24 µM; TGI (SNB-75 CNS): > 100 µM; GI50 (NCI-H460 lung): 3.23 µM; TGI (NCI-H460 lung): 14 µM; GI50 (MCF7 breast): 3.4 µM; TGI (MCF7 breast): > 100 µM; GI50 (HL-60(TB) leukemia): 2.55 µM; TGI (HL-60(TB) leukemia): 7.75 µM; GI50 (UO-31 renal): 2.47 µM; TGI (UO-31 renal): 7.93 µM

Q: Which results are given for COc1ccc(-c2cc(=O)[nH]c3c(OC)c4ccccc4c(OC)c23)cc1?
A: GI50 (OVCAR-5 ovarian): 3.58 µM; TGI (OVCAR-5 ovarian): > 100 µM; GI50 (MDA-MB-231 breast): 1.44 µM; TGI (MDA-MB-231 breast): > 100 µM; GI50 (K-562 leukemia): 0.346 µM; TGI (K-562 leukemia): > 100 µM; GI50 (SN12C renal): 0.612 µM; TGI (SN12C renal): > 100 µM; GI50 (SF-539 CNS): 0.393 µM; GI50 (SNB-75 CNS): 0.246 µM; TGI (SNB-75 CNS): 1.68 µM; GI50 (NCI-H460 lung): 0.379 µM; GI50 (MCF7 breast): 0.357 µM; TGI (MCF7 breast): > 100 µM; GI50 (HL-60(TB) leukemia): 0.276 µM; GI50 (UO-31 renal): 0.725 µM; TGI (UO-31 renal): > 100 µM

Q: For CC(C)(C)n1cc(-c2ccnc(NCCCNS(=O)(=O)c3ccc(C(F)(F)F)cc3)c2)c(-c2cccc(O)c2)n1, which GI50 (OVCAR-5 ovarian) is on record?
A: 1.81 µM

Q: And the TGI (OVCAR-5 ovarian)?
A: 3.4 µM

Q: And the GI50 (MDA-MB-231 breast)?
A: 2.13 µM

Q: And the TGI (MDA-MB-231 breast)?
A: 3.98 µM

Q: What about the GI50 (K-562 leukemia) of the same compound?
A: 2.1 µM

Q: And the TGI (K-562 leukemia)?
A: > 100 µM

Q: What about the GI50 (SN12C renal) of the same compound?
A: 1.61 µM

Q: What about the TGI (SN12C renal) of the same compound?
A: 3.03 µM

Q: What about the GI50 (SF-539 CNS) of the same compound?
A: 1.65 µM

Q: And the TGI (SF-539 CNS)?
A: 3.09 µM

Q: And the GI50 (SNB-75 CNS)?
A: 1.94 µM

Q: And the TGI (SNB-75 CNS)?
A: 6.04 µM

Q: And the GI50 (NCI-H460 lung)?
A: 1.86 µM

Q: And the TGI (NCI-H460 lung)?
A: 3.57 µM

Q: What about the GI50 (MCF7 breast) of the same compound?
A: 1.78 µM

Q: What about the TGI (MCF7 breast) of the same compound?
A: 3.63 µM

Q: What about the GI50 (HL-60(TB) leukemia) of the same compound?
A: 2.81 µM

Q: What about the TGI (HL-60(TB) leukemia) of the same compound?
A: 7.74 µM

Q: And the GI50 (UO-31 renal)?
A: 1.58 µM

Q: And the TGI (UO-31 renal)?
A: 3.06 µM
